Holding throughout (assay): NCI tumour cell line growth inhibition, 48 h
Assay [1] concerns HCC-2998 colon.
The subject of assay [2] is A549 NSCLC.
Assay [3] relates to SF-295 CNS.
Assay [4] relates to CAKI-1 renal.
Assay [5] deals with K-562 leukemia.
For assay [6], the system named is HOP-62 NSCLC.
Assay [7] has as its system CCRF-CEM leukemia.
In assay [8] the test system is UO-31 renal.
For assay [9], the system named is HL-60(TB) leukemia.
The test system of assay [10] is TK-10 renal.

Several values for one entry are separate records, joined by “and”; a condition that tells them apart may be missing. Equal values may be shown once.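 Exposure lasted 48 hours, with cells grown in 96-well plates and compounds tested at five concentrations. Abbreviation: GI50, concentration required for 50% inhibition of growth. At the TGI there is no net growth.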

With `O=c1[nH]c(=O)n(C2CC(O)C(CO)O2)cc1C#Cc1c(F)c(F)c(F)c(F)c1F` (stereo not given), the TGI in assay [1], in [2], in [3], in [4], in [5] and in [6] was above 100 µM in each case. Further, the TGI in assay [7] and in assay [8] was above 100 µM each time.
For `COc1ccc(/C=C(/C(=O)O)c2cc(OC)c(OC)c(OC)c2)cc1`, the TGI in assay [1], in assay [2], in assay [4], in [5], in assay [6] and in assay [7] was above 100 µM in each case. In addition, in assay [8], the TGI was above 100 µM.
For `OCc1c(-c2cccc3ccccc23)sc(-c2cccc3ccccc23)c1CO`, the TGI in assay [1] stood at 33.9 µM; in assay [3] it was 28.2 µM; in [5], 31.3 µM; in assay [9] it was 42.5 µM; in [6], 26.3 µM; in [10], 26.9 µM. In addition, the TGI in [7] turned out to be 46.5 µM; in assay [8], 23.7 µM.
With `O=C(/C=C(\[O-])c1ccccc1)CCCCCCC(=O)/C=C(\[O-])c1ccccc1.O=C(/C=C(\[O-])c1ccccc1)CCCCCCC(=O)/C=C(\[O-])c1ccccc1.O=C(/C=C(\[O-])c1ccccc1)CCCCCCC(=O)/C=C(\[O-])c1ccccc1.[La+3].[La+3]`, the GI50 in assay [1], in [2], in assay [4], in [5], in [9] and in assay [6] was above 50 µM throughout. Further, the GI50 in assay [10] and in [8] was above 50 µM in each case. Also, the TGI in assay [1], in [2], in assay [4], in assay [5], in assay [9] and in [6] was above 50 µM each time. The TGI in assay [10] and in assay [8] was above 50 µM each time.
As for `O=c1c(Cl)c(Cl)cnn1-c1ccccc1`, the TGI is 9.66 µM and 6.39 µM in assay [1]; 26.9 µM and 37.6 µM in [2]; 9.7 µM and 32.3 µM in assay [3]; 5.14 µM and 4.67 µM in assay [5]; 10.7 µM and 2.11 µM in assay [9]; 16.7 µM and 32.1 µM in [6]. Besides, the TGI in [10] was 24.7 µM and 29.8 µM; in [7], 9.58 µM and 5.53 µM; in [8], 8.91 µM and 7.47 µM. In addition, the GI50 in [3] was 5.18 µM and 16 µM; in assay [5], 2.13 µM; in assay [9] it was 0.774 µM; in assay [7], 0.825 µM and 1.8 µM.
As for `OCCNCO`, the TGI in assay [2], in [3], in [4], in [5], in assay [9] and in assay [6] was above 100 µM throughout. The TGI in assay [10], in assay [7] and in assay [8] was above 100 µM each time.
Take `O=C(N/N=C/c1cccc(O)c1O)N/N=C/c1cccc(O)c1O`: the TGI in assay [2] is above 100 µM; in [3], 46.2 µM; in [5] it was above 100 µM; in assay [10], above 100 µM; in [7], 38.5 µM; in assay [8] it was 36.8 µM.
Consider `CC(=O)c1ccc(N(/C=C/C(=O)C(F)(F)F)CC(=O)c2ccc(Cl)c(Cl)c2)cc1`, for which the GI50 is 18.5 µM in [1]; 14.2 µM in assay [2]; 12.3 µM in assay [3]; 16.4 µM in assay [4]; 15.3 µM in [6]; 15.8 µM in [10]. Further, the values for the GI50 in [7] and in assay [8] were 10.4 µM and 16.5 µM, respectively. The TGI stood at 34.9 µM in assay [1]; 33.5 µM in assay [2]; 26.2 µM in [3]; 33.1 µM in assay [4]; 28.7 µM in assay [6]; 32.8 µM in assay [10]. Further, the TGI came to 36.9 µM in assay [7] and 30.5 µM in assay [8].
Regarding `COc1cc2c(cc1OC)C1C=NC(C(=O)O)(C2)c2ccccc21` (stereo not given), the TGI in [2], in [3], in assay [4], in [5], in assay [9] and in [6] was above 100 µM throughout. Further, the TGI in assay [10] and in assay [7] was above 100 µM throughout.
With `CCN1CCN(c2nc(NCCNc3ccnc4cc(Cl)ccc34)c3ccccc3n2)CC1`, the GI50 in [1] is 1.69 µM; in [2], 2.21 µM; in assay [3] it was 1.33 µM; in assay [5] it was 1.03 µM; in [9] it was 2.01 µM; in assay [6] it was 1.95 µM. The values for the GI50 in [10], in assay [7] and in assay [8] were 2.42 µM, 0.759 µM and 1.53 µM, respectively. In addition, the TGI is 4.91 µM in assay [1]; 8.48 µM in assay [2]; 2.74 µM in [3]; 3.89 µM in assay [5]; 4.01 µM in assay [9]; 6.43 µM in assay [6]. Further, the figures for the TGI in assay [10], in assay [7] and in assay [8] were 6.02 µM, 7.59 µM and 3.3 µM, respectively.
As to `CCCCCCCCCCCCCCC1OC(=O)c2ccccc21` (stereo not given), the TGI in assay [2] is above 100 µM; in assay [3], above 100 µM; in assay [5] it was above 100 µM; in [9], 40.7 µM; in [6], above 100 µM; in assay [10] it was above 100 µM. Further, the TGI in assay [7] and in assay [8] was above 100 µM each time.
As for `O=C1c2ccccc2-c2c1c1cc3c(cc1c(=O)n2CCCCl)OCO3`, the GI50 in assay [1] is 24.4 µM; in assay [2], 36.3 µM; in [3], 16.2 µM; in [4], 20.4 µM; in assay [5] it was 99.8 µM; in [6], 12.3 µM. Also, the GI50 in assay [10] was 30.9 µM; in [7] it was 66.1 µM; in [8], above 100 µM. For the same compound, the TGI in assay [1] is above 100 µM; in [2], above 100 µM; in [3], 46.8 µM; in assay [4], 82.4 µM; in assay [5], above 100 µM; in assay [6], 28.6 µM. Besides, the TGI in assay [10] is 75.2 µM; in [7] it was above 100 µM; in assay [8] it was above 100 µM.
